Several values for one entry are separate records, joined by “and”; a condition that tells them apart may be missing. Equal values may be shown once. Toxic doses and inconclusive results are not listed. Rule as the data show it: active = T/C of 150% or more; inactive = T/C below 125%.
Tested on: L1210 leukemia ip in BDF1 mice, survival T/C
Experiment: NCI In Vivo Anticancer Drug Screen. Data for tumor model L1210 Leukemia (intraperitoneal) in B6D2F1 (BDF1) mice
Settings: endpoint: mean survival time, higher = longer survival
Procedure, shortened: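 Each compound was tested against a transplantable tumor grown in mice. The endpoint was survival, with treated animals benchmarked against vehicle controls as a simple ratio.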

[1] = dose: 50.0 mg/kg/injection, schedule: Q01DX001 (ip), vehicle: saline
[2] = dose: 100.0 mg/kg/injection, schedule: Q01DX001 (ip), vehicle: saline
[3] = dose: 200.0 mg/kg/injection, schedule: Q01DX001 (ip), vehicle: saline
[4] = dose: 100.0 mg/kg/injection, schedule: Q04DX003 (ip), vehicle: saline with Tween-80
[5] = dose: 200.0 mg/kg/injection, schedule: Q04DX003 (ip), vehicle: saline with Tween-80
[6] = dose: 400.0 mg/kg/injection, schedule: Q04DX003 (ip), vehicle: saline with Tween-80
[7] = dose: 100.0 mg/kg/injection, schedule: Q01DX009 (ip), vehicle: saline with Tween-80
[8] = dose: 200.0 mg/kg/injection, schedule: Q01DX009 (ip), vehicle: saline with Tween-80
[9] = dose: 400.0 mg/kg/injection, schedule: Q01DX009 (ip), vehicle: saline with Tween-80
[10] = dose: 100.0 mg/kg/injection, schedule: Q04DX003 (ip), vehicle: saline
[11] = dose: 200.0 mg/kg/injection, schedule: Q04DX003 (ip), vehicle: saline
[12] = dose: 400.0 mg/kg/injection, schedule: Q04DX003 (ip), vehicle: saline
[13] = dose: 100.0 mg/kg/injection, schedule: Q01DX009 (ip), vehicle: Klucel (hydroxypropylcellulose) (HPC)
[14] = dose: 100.0 mg/kg/injection, schedule: Q04DX003 (ip), vehicle: Klucel (hydroxypropylcellulose) (HPC)
[15] = dose: 200.0 mg/kg/injection, schedule: Q04DX003 (ip), vehicle: Klucel (hydroxypropylcellulose) (HPC)
[16] = dose: 400.0 mg/kg/injection, schedule: Q04DX003 (ip), vehicle: Klucel (hydroxypropylcellulose) (HPC)
[17] = dose: 100.0 mg/kg/injection, schedule: Q01DX001 (ip), vehicle: saline with Tween-80
[18] = dose: 200.0 mg/kg/injection, schedule: Q01DX001 (ip), vehicle: saline with Tween-80

Measured: T/C

Cc1ccc(O)c(CCCO)c1
inactive: [1] 97 % of control | [2] 105 % of control | [3] 94 % of control

Clc1ccccc1OB(Oc1ccccc1Cl)Oc1ccccc1Cl
inactive: [2] 101 % of control | [3] 95 % of control

CC(=O)Nc1ccc(-c2ccc(C)cc2)cc1
inactive: [4] 104 % of control | [5] 106 % of control | [6] 95 % of control

ON=C(c1ccc(Cl)cc1)c1ccc(Cl)cc1
inactive: [7] 95 % of control | [8] 93 % of control | [9] 93 % of control

ON=C1c2ccccc2-c2ccccc21
inactive: dose: 100.0 mg/kg/injection, schedule: Q04DX002 (ip), vehicle: Klucel (hydroxypropylcellulose) (HPC) 96 % of control | dose: 200.0 mg/kg/injection, schedule: Q04DX002 (ip), vehicle: Klucel (hydroxypropylcellulose) (HPC) 93 % of control | dose: 400.0 mg/kg/injection, schedule: Q04DX002 (ip), vehicle: Klucel (hydroxypropylcellulose) (HPC) 104 % of control

COC1OCCCC1OC(=O)c1ccccc1 (configuration not stated)
inactive: [1] 109 % of control | [2] 103 % of control | [3] 105 % of control | dose: 400.0 mg/kg/injection, schedule: Q01DX001 (ip), vehicle: saline 94 % of control

C(=NCCCN1CCN(CCCN=Cc2ccc3c(c2)OCO3)CC1)c1ccc2c(c1)OCO2
inactive: dose: 25.0 mg/kg/injection, schedule: Q01DX Z (ip), vehicle: carboxymethylcellulose (CMC) 103 % of control | dose: 50.0 mg/kg/injection, schedule: Q01DX Z (ip), vehicle: carboxymethylcellulose (CMC) 109 % of control | dose: 100.0 mg/kg/injection, schedule: Q01DX Z (ip), vehicle: carboxymethylcellulose (CMC) 100 % of control | dose: 200.0 mg/kg/injection, schedule: Q01DX Z (ip), vehicle: carboxymethylcellulose (CMC) 97 % of control

O=C(N1C(c2ccc(Cl)cc2)CC2(CC1c1ccc(Cl)cc1)SSC1(CC(c3ccc(Cl)cc3)N(C(=O)C(F)(F)F)C(c3ccc(Cl)cc3)C1)S2)C(F)(F)F (configuration not stated)
inactive: dose: 100.0 mg/kg/injection, schedule: Q01DX009 (ip), vehicle: saline 102 % of control | [10] 95 % of control | dose: 200.0 mg/kg/injection, schedule: Q01DX009 (ip), vehicle: saline 98 % of control | [11] 97 % of control | dose: 400.0 mg/kg/injection, schedule: Q01DX009 (ip), vehicle: saline 105 % of control | [12] 95 % of control

COC(=O)c1ccccc1OC(=O)Nc1ccc(SC)cc1
inactive: dose: 50.0 mg/kg/injection, schedule: Q04DX002 (ip), vehicle: saline with Tween-80 96 % of control and 91 % of control | [7] 96 % of control | dose: 100.0 mg/kg/injection, schedule: Q04DX002 (ip), vehicle: saline with Tween-80 96 % of control and 104 % of control and 86 % of control | [4] 100 % of control | [8] 94 % of control and 89 % of control | dose: 200.0 mg/kg/injection, schedule: Q04DX002 (ip), vehicle: saline with Tween-80 95 % of control and 104 % of control | [5] 98 % of control | [9] 102 % of control and 115 % of control | dose: 400.0 mg/kg/injection, schedule: Q04DX002 (ip), vehicle: saline with Tween-80 93 % of control and 105 % of control and 107 % of control | [6] 97 % of control

Oc1ccccc1CNc1nn[nH]n1
inactive: dose: 100.0 mg/kg/injection, schedule: Q01DX001 (ip), vehicle: Klucel (hydroxypropylcellulose) (HPC) 101 % of control | dose: 200.0 mg/kg/injection, schedule: Q01DX001 (ip), vehicle: Klucel (hydroxypropylcellulose) (HPC) 108 % of control | dose: 400.0 mg/kg/injection, schedule: Q01DX001 (ip), vehicle: Klucel (hydroxypropylcellulose) (HPC) 103 % of control

O=C(/C=C/c1ccc2c(c1)OCO2)c1ccc2c(c1)OCO2
inactive: [13] 106 % of control | [14] 98 % of control | dose: 200.0 mg/kg/injection, schedule: Q01DX009 (ip), vehicle: Klucel (hydroxypropylcellulose) (HPC) 100 % of control | [15] 104 % of control | dose: 400.0 mg/kg/injection, schedule: Q01DX009 (ip), vehicle: Klucel (hydroxypropylcellulose) (HPC) 100 % of control | [16] 101 % of control

CCCC[S][Hg][I]
inactive: dose: 3.12 mg/kg/injection, schedule: Q01DX009 (ip), vehicle: Klucel (hydroxypropylcellulose) (HPC) 98 % of control | dose: 6.25 mg/kg/injection, schedule: Q01DX009 (ip), vehicle: Klucel (hydroxypropylcellulose) (HPC) 98 % of control | dose: 12.5 mg/kg/injection, schedule: Q01DX009 (ip), vehicle: Klucel (hydroxypropylcellulose) (HPC) 110 % of control

CC(Oc1ccccc1)C(=O)NC(=S)Nc1ccc(Cl)cc1 (configuration not stated)
inactive: dose: 50.0 mg/kg/injection, schedule: Q01DX001 (ip), vehicle: saline with Tween-80 97 % of control | dose: 50.0 mg/kg/injection, schedule: Q01DX009 (ip), vehicle: saline with Tween-80 97 % of control and 98 % of control and 92 % of control | dose: 50.0 mg/kg/injection, schedule: Q04DX003 (ip), vehicle: saline with Tween-80 98 % of control | [17] 97 % of control | [7] 97 % of control and 98 % of control and 101 % of control | [4] 97 % of control | [18] 92 % of control | [5] 109 % of control

Oc1cc(Cl)ccc1Cl
inactive: dose: 75.0 mg/kg/injection, schedule: Q01DX009 (ip), vehicle: saline 90 % of control | [10] 95 % of control | dose: 150.0 mg/kg/injection, schedule: Q01DX009 (ip), vehicle: saline 101 % of control | [11] 100 % of control | dose: 300.0 mg/kg/injection, schedule: Q01DX009 (ip), vehicle: saline 96 % of control | [12] 98 % of control

NC(=O)C(c1ccccc1)N1CCCCC1 (configuration not stated)
inactive: dose: 25.0 mg/kg/injection, schedule: Q01DX009 (ip), vehicle: Klucel (hydroxypropylcellulose) (HPC) 87 % of control | dose: 25.0 mg/kg/injection, schedule: Q04DX003 (ip), vehicle: Klucel (hydroxypropylcellulose) (HPC) 96 % of control | dose: 50.0 mg/kg/injection, schedule: Q01DX009 (ip), vehicle: Klucel (hydroxypropylcellulose) (HPC) 96 % of control | dose: 50.0 mg/kg/injection, schedule: Q04DX003 (ip), vehicle: Klucel (hydroxypropylcellulose) (HPC) 100 % of control | [13] 97 % of control | [14] 92 % of control and 90 % of control

O=C(CBr)NC(Cc1ccccc1)C(=O)O (configuration not stated)
inactive: dose: 75.0 mg/kg/injection, schedule: Q01DX001 (ip), vehicle: saline 94 % of control and 90 % of control | dose: 150.0 mg/kg/injection, schedule: Q01DX001 (ip), vehicle: saline 103 % of control | dose: 300.0 mg/kg/injection, schedule: Q01DX001 (ip), vehicle: saline 90 % of control

CCCCCCNCCC[P+](c1ccccc1)(c1ccccc1)c1ccccc1
inactive: dose: 12.5 mg/kg/injection, schedule: Q04DX002 (ip), vehicle: saline 91 % of control | dose: 25.0 mg/kg/injection, schedule: Q04DX002 (ip), vehicle: saline 98 % of control | dose: 50.0 mg/kg/injection, schedule: Q04DX002 (ip), vehicle: saline 98 % of control

Cc1c(Cl)ccc2c(C(=O)NN)cc(-c3ccc(Cl)cc3)nc12
inactive: [17] 92 % of control | [18] 97 % of control | dose: 400.0 mg/kg/injection, schedule: Q01DX001 (ip), vehicle: saline with Tween-80 97 % of control

Nc1nc2nc(-c3ccccc3)[nH]c2c(=O)[nH]1
inactive: [14] 98 % of control | [15] 101 % of control | [16] 93 % of control

— PubChem BioAssay AID248 (DTP/NCI, 2004)
